According to paper PMC13070491, “Single-nucleus transcriptomics, pharmacokinetics, and pharmacodynamics of CDK4/6 and mTOR inhibition in a Phase 0/1 trial of recurrent high-grade glioma” (Neuro-Oncology, 2025):
Where “and” joins values, the source holds several entries; their conditions need not be identical. Identical values can stand only once.

Assay: CNS penetration: total and unbound drug concentrations in tumor regions, CSF and plasma (LC-MS/MS, equilibrium dialysis);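 further: drug levels in patient tumor tissue from contrast-enhancing and non-enhancing regions sampled under MRI-guided neuronavigation, with plasma and CSF drawn during surgical resection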
Settings: for Ribociclib.CSF / Ribociclib.Non-enhancing.tumor / Ribociclib.Plasma.conc / Ribociclib.Unbound.CSF / Ribociclib.Unbound.enhancing: per patient; for Kp at 120 h / Kp uu at 120 h / concentration at 5 days: human
[1] = Level 0: Ribociclib 400mg QD + Everolimus 2.5mg QD, sampling 1-3 Hours
[2] = Level 0: Ribociclib 400mg QD + Everolimus 2.5mg QD, sampling 23-25 Hours
[3] = Level 1: Ribociclib 600mg QD + Everolimus 2.5mg QD, sampling 1-3 Hours
[4] = Level 1: Ribociclib 600mg QD + Everolimus 2.5mg QD, sampling 7-9 Hours
[5] = Level 2: Ribociclib 600mg QD + Everolimus 5mg QD, sampling 7-9 Hours
[6] = Level 3: Ribociclib 600mg QD + Everolimus 10mg QD, sampling 7-9 Hours
[7] = Level 4: Ribociclib 600mg QD + Everolimus 50mg once on Day 5, sampling 7-9 Hours
[8] = Level 5: Ribociclib 600mg QD + Everolimus 60mg once on Day 5, sampling 7-9 Hours
[9] = Level 6: Ribociclib 600mg QD + Everolimus 70mg once on Day 5, sampling 7-9 Hours
[10] = enhancing tumor / plasma, oral, 400 mg
[11] = enhancing tumor / plasma, oral, 600 mg
[12] = non-enhancing tumor / plasma, oral, 400 mg
[13] = non-enhancing tumor / plasma, oral, 600 mg

CN(C)C(=O)c1cc2cnc(Nc3ccc(N4CCNCC4)cn3)nc2n1C1CCCC1 [Ribociclib, ribociclib]
Total Ribociclib concentration, CSF, Minimum (400 mg QD 5 days): 36 nM | Total Ribociclib concentration, CSF, Maximum (600 mg QD 5 days): 714 nM | Total Ribociclib concentration, CSF, Median (600 mg QD 5 days): 276 nM | Total Ribociclib concentration, CSF, Minimum (600 mg QD 5 days): 54 nM | Ribociclib.CSF [1]: 0.0707 | Ribociclib.Non-enhancing.tumor [1]: 6.684 | Ribociclib.Plasma.conc [1]: 2.09 and 0.31 | Ribociclib.Unbound.CSF [1]: 0.2008 and 0.0206 | Ribociclib.Unbound.enhancing [1]: 1.4 and 0.419 | Ribociclib.CSF [2]: 0.1931 | Ribociclib.Non-enhancing.tumor [2]: 3.834 | Ribociclib.Plasma.conc [2]: 0.402 and 0.1417 | Ribociclib.Unbound.CSF [2]: 0.0928 | Ribociclib.Unbound.enhancing [2]: 0.92 and 0.1576 | Ribociclib.CSF [3]: 0.0543 | Ribociclib.Non-enhancing.tumor [3]: 7.2608 | Ribociclib.Plasma.conc [3]: 0.1944 | Ribociclib.Unbound.CSF [3]: 0.0207 | Ribociclib.Unbound.enhancing [3]: 0.4205 | Ribociclib.CSF [4]: 0.4701 and 0.7139 | Ribociclib.Non-enhancing.tumor [4]: 30.0728 and 22.3048 | Ribociclib.Plasma.conc [4]: 3.4168 and 1.3485 | Ribociclib.Unbound.CSF [4]: 0.2858 and 0.3152 | Ribociclib.Unbound.enhancing [4]: 4.5 and 3.49 | Ribociclib.CSF [5]: 0.1529 and 0.1758 | Ribociclib.Non-enhancing.tumor [5]: 8.1928 and 11.9076 and 16.496 | Ribociclib.Plasma.conc [5]: 1.151 and 0.8853 and 1.3745 | Ribociclib.Unbound.CSF [5]: 0.1531 and 0.1613 | Ribociclib.Unbound.enhancing [5]: 1.0167 and 1.1852 and 2.1093 | Ribociclib.CSF [6]: 0.2760 and 0.5558 and 0.3667 | Ribociclib.Non-enhancing.tumor [6]: 19.9804 and 11.7316 and 41.6376 | Ribociclib.Plasma.conc [6]: 1.0816 and 1.6009 | Ribociclib.Unbound.CSF [6]: 0.3027 | Ribociclib.Unbound.enhancing [6]: 1.1229 and 3.39 and 0.0047 | Ribociclib.CSF [7]: 0.1707 and 0.4561 | Ribociclib.Non-enhancing.tumor [7]: 4.2684 and 4.8112 | Ribociclib.Plasma.conc [7]: 0.7506 and 1.3586 and 0.9058 | Ribociclib.Unbound.CSF [7]: 0.1543 and 0.2120 and 0.3373 | Ribociclib.Unbound.enhancing [7]: 0.6494 and 0.9352 and 3.453 | Ribociclib.CSF [8]: 0.0807 and 0.3122 and 0.4398 | Ribociclib.Non-enhancing.tumor [8]: 12.238 and 4.126 | Ribociclib.Plasma.conc [8]: 1.163 and 1.8703 and 1.3349 | Ribociclib.Unbound.CSF [8]: 0.0799 and 0.2965 | Ribociclib.Unbound.enhancing [8]: 1.348 and 0.6511 and 0.2648 | Ribociclib.CSF [9]: 0.5436 and 0.0672 and 0.1419 | Ribociclib.Non-enhancing.tumor [9]: 17.8508 and 1.3144 and 1.5982 | Ribociclib.Plasma.conc [9]: 1.4899 and 0.302 and 1.3235 | Ribociclib.Unbound.CSF [9]: 0.1898 and 0.0709 and 0.0882 | Ribociclib.Unbound.enhancing [9]: 1.0559 and 0.5673 and 0.5436 | Kp at 120 h (CSF / plasma, oral, 400 mg): 0.25 | Kp uu at 120 h (CSF / plasma, oral, 400 mg): 1.15 | Kp at 120 h (CSF / plasma, oral, 600 mg): 0.22 | Kp uu at 120 h (CSF / plasma, oral, 600 mg): 0.84 | concentration at 5 days (CSF, oral, Total Ribociclib concentration, Maximum, 400 mg QD 5 days): 216 nM | concentration at 5 days (CSF, oral, Total Ribociclib concentration, Median, 400 mg QD 5 days): 137 nM | concentration at 5 days (CSF, oral, Unbound Ribociclib concentration, Maximum, 400 mg QD 5 days): 201 nM | concentration at 5 days (CSF, oral, Unbound Ribociclib concentration, Maximum, 600 mg QD 5 days): 337 nM | concentration at 5 days (CSF, oral, Unbound Ribociclib concentration, Median, 400 mg QD 5 days): 82 nM | concentration at 5 days (CSF, oral, Unbound Ribociclib concentration, Median, 600 mg QD 5 days): 212 nM | concentration at 5 days (CSF, oral, Unbound Ribociclib concentration, Minimum, 400 mg QD 5 days): 21 nM | concentration at 5 days (CSF, oral, Unbound Ribociclib concentration, Minimum, 600 mg QD 5 days): 21 nM | Kp at 120 h [10]: 12.9 | Kp uu at 120 h [10]: 5.1 | Kp at 120 h [11]: 14.1 | Kp uu at 120 h [11]: 5.67 | concentration at 5 days (enhancing tumor, oral, Total Ribociclib concentration, Maximum, 400 mg QD 5 days): 9900 nM | concentration at 5 days (enhancing tumor, oral, Total Ribociclib concentration, Maximum, 600 mg QD 5 days): 49400 nM | concentration at 5 days (enhancing tumor, oral, Total Ribociclib concentration, Median, 400 mg QD 5 days): 4060 nM | concentration at 5 days (enhancing tumor, oral, Total Ribociclib concentration, Median, 600 mg QD 5 days): 14800 nM | concentration at 5 days (enhancing tumor, oral, Total Ribociclib concentration, Minimum, 400 mg QD 5 days): 2330 nM | concentration at 5 days (enhancing tumor, oral, Total Ribociclib concentration, Minimum, 600 mg QD 5 days): 753 nM | concentration at 5 days (enhancing tumor, oral, Unbound Ribociclib concentration, Maximum, 400 mg QD 5 days): 1400 nM | concentration at 5 days (enhancing tumor, oral, Unbound Ribociclib concentration, Maximum, 600 mg QD 5 days): 4500 nM | concentration at 5 days (enhancing tumor, oral, Unbound Ribociclib concentration, Median, 400 mg QD 5 days): 375 nM | concentration at 5 days (enhancing tumor, oral, Unbound Ribociclib concentration, Median, 600 mg QD 5 days): 1040 nM | concentration at 5 days (enhancing tumor, oral, Unbound Ribociclib concentration, Minimum, 400 mg QD 5 days): 158 nM | concentration at 5 days (enhancing tumor, oral, Unbound Ribociclib concentration, Minimum, 600 mg QD 5 days): 4.7 nM | Kp at 120 h [12]: 8.35 | Kp uu at 120 h [12]: 3.19 | Kp at 120 h [13]: 8.8 | Kp uu at 120 h [13]: 3.78 | concentration at 5 days (non-enhancing tumor, oral, Total Ribociclib concentration, Maximum, 400 mg QD 5 days): 15000 nM | concentration at 5 days (non-enhancing tumor, oral, Total Ribociclib concentration, Maximum, 600 mg QD 5 days): 41600 nM | concentration at 5 days (non-enhancing tumor, oral, Total Ribociclib concentration, Median, 400 mg QD 5 days): 3130 nM | concentration at 5 days (non-enhancing tumor, oral, Total Ribociclib concentration, Median, 600 mg QD 5 days): 11700 nM | concentration at 5 days (non-enhancing tumor, oral, Total Ribociclib concentration, Minimum, 400 mg QD 5 days): 1370 nM | concentration at 5 days (non-enhancing tumor, oral, Total Ribociclib concentration, Minimum, 600 mg QD 5 days): 1310 nM | concentration at 5 days (non-enhancing tumor, oral, Unbound Ribociclib concentration, Maximum, 400 mg QD 5 days): 1770 nM | concentration at 5 days (non-enhancing tumor, oral, Unbound Ribociclib concentration, Maximum, 600 mg QD 5 days): 2340 nM | concentration at 5 days (non-enhancing tumor, oral, Unbound Ribociclib concentration, Median, 400 mg QD 5 days): 170 nM | concentration at 5 days (non-enhancing tumor, oral, Unbound Ribociclib concentration, Median, 600 mg QD 5 days): 693 nM | concentration at 5 days (non-enhancing tumor, oral, Unbound Ribociclib concentration, Minimum, 400 mg QD 5 days): 65 nM | concentration at 5 days (non-enhancing tumor, oral, Unbound Ribociclib concentration, Minimum, 600 mg QD 5 days): 68 nM | concentration at 5 days (non-enhancing tumor, po, unbound drug concentration in the non-enhancing tumor regions, range, ribociclib 400 mg daily oral, 5 days): 65 to 1770 nM | concentration at 5 days (non-enhancing tumor, po, unbound drug concentration in the non-enhancing tumor regions, range, ribociclib 600 mg daily oral, 5 days): 68 to 2340 nM
